Converted amounts (≈) assume the structure as drawn.
Columns and labels:
Assay type in all cases: in vivo
[1] = system: barnyard grass (Echinochloa crus-galli); assay: Pre-emergence application, herbicidal effect on barnyard grass (Table 1); set-up: key: 0: not damaged; 5: completely killed; settings: 20 days after application, score 0-5
Method in brief: (§1)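 Compounds, formulated as water-diluted wettable powder, were applied to the soil surface after sowing and covering the seeds in pots of about 10 cm. Effects were rated on a 0 (no damage) to 5 (complete kill) scale after 20 days of greenhouse growth.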

[2] = system: large crabgrass (Digitaria sanguinalis); assay: Pre-emergence application, herbicidal effect on large crabgrass (Table 1); set-up: key: 0: not damaged; 5: completely killed; settings: 20 days after application, score 0-5
Method in brief: as §1

[3] = system: rice; assay: Water application, phytotoxicity on rice (Table 2); set-up: key: 0: no effect; 1: very slightly affected; 2: slightly affected; 3: moderately affected; 4: considerably affected; 5: completely killed; settings: 25 days, score 0-5
Method in brief: (§2)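 Ratings on a 0–5 scale taken 25 days post-treatment for rice injury, barnyard grass, and naturally emerging monochoria, false pimpernel and toothcup. Compounds as wettable powder went onto waterlogged paddy soil holding rice seedlings transplanted at 3 leaves and barnyard grass seed.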

[4] = system: barnyard grass (Echinochloa crus-galli); assay: Water application, herbicidal effect on barnyard grass (Table 2); set-up: key: 0: not damaged; 5: completely killed; settings: 25 days, score 0-5
Method in brief: as §2

[5] = system: redroot pigweed (Amaranthus retroflexus); assay: Pre-emergence application, herbicidal effect on redroot pigweed (Table 1); set-up: key: 0: not damaged; 5: completely killed; settings: 20 days after application, score 0-5
Method in brief: as §1

[6] = system: common purslane (Portulaca oleracea); assay: Pre-emergence application, herbicidal effect on common purslane (Table 1); set-up: key: 0: not damaged; 5: completely killed; settings: 20 days after application, score 0-5
Method in brief: as §1

[7] = system: radish; assay: Pre-emergence application, herbicidal effect on radish (Table 1); set-up: key: 0: not damaged; 5: completely killed; settings: 20 days after application, score 0-5
Method in brief: as §1

[8] = system: broad-leaved weeds, e.g., monochoria, false pimpernel and toothcup; assay: Water application, herbicidal effect on broad-leaved weeds (Table 2); set-up: key: 0: not damaged; 5: completely killed; settings: 25 days, score 0-5
Method in brief: as §2

[9] = system: nematode; assay: Effect on nematode (Table 7); set-up: tested at 500 ppm; settings: 500 p.p.m., 24 hours
Procedure: 0.5 ml. of a nematode-containing aqueous solution separated from food according to Baermann's method was placed in a test tube with ground stopper containing 0.5 ml. of an aqueous dilute solution of each emulsifiable concentrates of the present compounds. The concentration of the active ingredient in the mixture was adjusted to 500 p.p.m. After 24 hours, the death and alive were observed microscopically to calculate the mortality.

[10] = system: broad-leaved weeds, e.g., monochoria, false pimpernel and toothcup; assay: Water application, herbicidal effect on broad-leaved weeds (Table 2); set-up: key: 0: no effect; 1: very slightly affected; 2: slightly affected; 3: moderately affected; 4: considerably affected; 5: completely killed; settings: 10 g/a, 25 days, score 0-5
Description: Wagner pots of 14 cm. in diameter, which had been packed with 1.5 kg. of paddy field soil, were brought into the state of paddy fields. To the pots were transplanted rice seedlings at the 3-leave stage. Further, seeds of barnyard grass (Echinochloa crus-galli) were sowed in the pots and required amounts of test compounds were applied to the soil under water lodged condition. 25 days after application, the degrees of herbicidal activity and phytotoxity were investigated on above-mentioned plants which had been transplanted and sowed, and on broad-leaved weeds, e.g., monochoria (Monochoria viaginalis Presl.), false pimpernel (Linderna pyxidaria) and toothcup (Rotala indica Koehue), which had been spontaneously germinated. The test compounds were used in the form of wettable powder. The herbicidal effects and the phytotoxity were evaluated as follows by the numerals ranging from 0 to 5.

[11] = system: carmine mite (Tetranychus telavius); assay: Lethal effect on carmine mite, leaf dipping (Table 3); settings: foliar, 48 h
Procedure: A large number of carmine mite adult were made parasitic on leaves of potted kidney beans at a 2-leaves stage which had elapsed 10 days after sowing. The leaves of kidney bean on which carmine mites had been made parasitic were dipped for 1 minute in each aqueous solution of the present compounds of wettable powder type. Water was given to the leaves not to kill them, and after 48 hours the death and alive were observed microscopically to calculate the mortality. Values of LC50 were obtained from the mortality.

[12] = system: common lambsquarter (Chenopodium album); assay: Pre-emergence application, herbicidal effect on common lambsquarter (Table 1); set-up: key: 0: not damaged; 5: completely killed; settings: 20 days after application, score 0-5
Method in brief: as §1

[13] = system: rice stem borer (Chilo suppressalis); assay: Lethal effect on rice stem borer (Table 6); settings: 50 % emulsifiable concentrate, 1000 fold dilute solution, 4 days after application
Description: Eggs just before hatch of the rice stem borer were applied in a ratio of 100/pot near the root of rice plants grown up into the tillering stage in an […] Wagner's pot. After eggs were hatched and the larvae entered into stems of rice plants, an 1000 fold dilute solution of each 50 % emulsifiable concentrates of the present compounds was applied by means of a turn table.

Row | SMILES | Herbicidal effect, barnyard grass ([1]; 10 g./a.) | Herbicidal effect, barnyard grass ([1]; 20 g./a.) | Herbicidal effect, barnyard grass ([1]; 40 g./a.) | Herbicidal effect, large crabgrass ([2]; 10 g./a.) | Herbicidal effect, large crabgrass ([2]; 20 g./a.) | Herbicidal effect, large crabgrass ([2]; 40 g./a.) | Phytotoxicity on rice ([3]; 10 g/a) | Phytotoxicity on rice ([3]; 20 g/a) | Phytotoxicity on rice ([3]; 40 g/a) | Herbicidal effects, barnyard grass ([4]; 10 g/a) | Herbicidal effects, barnyard grass ([4]; 20 g/a) | Herbicidal effects, barnyard grass ([4]; 40 g/a) | Herbicidal effect, redroot pigweed ([5]; 10 g./a.) | Herbicidal effect, redroot pigweed ([5]; 20 g./a.) | Herbicidal effect, redroot pigweed ([5]; 40 g./a.) | Herbicidal effect, common purslane ([6]; 10 g./a.) | Herbicidal effect, common purslane ([6]; 20 g./a.) | Herbicidal effect, common purslane ([6]; 40 g./a.) | Herbicidal effect, radish ([7]; 10 g./a.) | Mortality [13] [%] | other results
1 | CCCCSP(=O)(OCC)SCC(=O)N1CCCCC1C (stereo not shown) [Compound 4] | 4 | 5 | 5 | 5 | 5 | 5 | 0 | 0 | 0 | 5 | 5 | 5 | 4 | 4 | 4 | 4 | 4 | 5 | 0 | 97.6 | Herbicidal effect, radish ([7]; 20 g./a.): 0; Herbicidal effect, radish ([7]; 40 g./a.): 0; Herbicidal effects, broad-leaved weeds ([8]; 20 g/a): 5; Herbicidal effects, broad-leaved weeds ([8]; 40 g/a): 5; Mortality [9]: 100%; Herbicidal effects, broad-leaved weeds [10]: 4; LC50 [11]: 11.4 µg/mL (≈ 32.2 µM); Herbicidal effect, common lambsquarter ([12]; 10 g./a.): 4; Herbicidal effect, common lambsquarter ([12]; 20 g./a.): 4; Herbicidal effect, common lambsquarter ([12]; 40 g./a.): 5
2 | CCOP(=O)(SCC(=O)N1CCCCC1C)SCC(C)C (stereo not shown) [Compound 6] |  |  |  |  |  |  |  |  |  |  |  |  |  |  |  |  |  |  |  | 75.0 | 
3 | C=C(Cl)CSP(=O)(OCC)SCC(=O)N1CCCCC1C (stereo not shown) [Compound 9] | 5 | 5 | 5 | 5 | 5 | 5 | 0 | 0 | 0 | 5 | 5 | 5 | 4 | 5 | 5 | 5 | 5 | 5 | 0 | 100 | Herbicidal effect, radish ([7]; 20 g./a.): 0; Herbicidal effect, radish ([7]; 40 g./a.): 0; Herbicidal effects, broad-leaved weeds ([8]; 10 g/a): 5; Herbicidal effects, broad-leaved weeds ([8]; 20 g/a): 5; Herbicidal effects, broad-leaved weeds ([8]; 40 g/a): 5; Mortality [9]: 100%; Herbicidal effect, common lambsquarter ([12]; 10 g./a.): 4; Herbicidal effect, common lambsquarter ([12]; 20 g./a.): 5; Herbicidal effect, common lambsquarter ([12]; 40 g./a.): 5
4 | CCCSP(=O)(OCC)SCC(=O)N1CCCCC1CC (stereo not shown) [Compound 14] | 5 | 5 | 5 | 5 | 5 | 5 | 0 | 0 | 0 | 5 | 5 | 5 | 4 | 5 | 5 | 5 | 5 | 5 | 0 |  | Herbicidal effect, radish ([7]; 20 g./a.): 0; Herbicidal effect, radish ([7]; 40 g./a.): 0; Herbicidal effects, broad-leaved weeds ([8]; 10 g/a): 5; Herbicidal effects, broad-leaved weeds ([8]; 20 g/a): 5; Herbicidal effects, broad-leaved weeds ([8]; 40 g/a): 5; Mortality [9]: 100%; LC50 [11]: 23.1 µg/mL (≈ 65.3 µM); Herbicidal effect, common lambsquarter ([12]; 10 g./a.): 4; Herbicidal effect, common lambsquarter ([12]; 20 g./a.): 5; Herbicidal effect, common lambsquarter ([12]; 40 g./a.): 5
5 | C=CCSP(=O)(OCCC)SCC(=O)N1CCC(C)CC1 (stereo not shown) [Compound 18] | 4 | 5 | 5 | 5 | 5 | 5 | 0 | 0 | 0 | 5 | 5 | 5 | 4 | 4 | 5 | 4 | 4 | 5 | 0 | 76.4 | Herbicidal effect, radish ([7]; 20 g./a.): 0; Herbicidal effect, radish ([7]; 40 g./a.): 0; Herbicidal effects, broad-leaved weeds ([8]; 10 g/a): 5; Herbicidal effects, broad-leaved weeds ([8]; 20 g/a): 5; Herbicidal effects, broad-leaved weeds ([8]; 40 g/a): 5; Herbicidal effect, common lambsquarter ([12]; 10 g./a.): 4; Herbicidal effect, common lambsquarter ([12]; 20 g./a.): 5; Herbicidal effect, common lambsquarter ([12]; 40 g./a.): 5
6 | CCCCSP(=O)(OCC)SCC(=O)N1CCC(C)CC1 (stereo not shown) [Compound 24] | 4 | 5 | 5 | 4 | 5 | 5 | 0 | 0 | 0 | 5 | 5 | 5 | 3 | 4 | 4 | 4 | 4 | 4 | 0 | 83.0 | Herbicidal effect, radish ([7]; 20 g./a.): 0; Herbicidal effect, radish ([7]; 40 g./a.): 0; Herbicidal effects, broad-leaved weeds ([8]; 20 g/a): 5; Herbicidal effects, broad-leaved weeds ([8]; 40 g/a): 5; Herbicidal effects, broad-leaved weeds [10]: 4; Herbicidal effect, common lambsquarter ([12]; 10 g./a.): 3; Herbicidal effect, common lambsquarter ([12]; 20 g./a.): 4; Herbicidal effect, common lambsquarter ([12]; 40 g./a.): 4
7 | CCCCSP(=O)(OC)SCC(=O)N1CCCCC1C (stereo not shown) [Compound 31] |  |  |  |  |  |  |  |  |  |  |  |  |  |  |  |  |  |  |  | 69.5 | 
8 | C=C(C)CSP(=O)(OCC)SCC(=O)N1CCCCC1C (stereo not shown) [Compound 35] |  |  |  |  |  |  |  |  |  |  |  |  |  |  |  |  |  |  |  | 95.0 | 
9 | CCOC(=O)CC(SP(=S)(OC)OC)C(=O)OCC (stereo not shown) [Malathion, reference compound] |  |  |  |  |  |  |  |  |  |  |  |  |  |  |  |  |  |  |  | 41.3 | 

— patent US4015974A, “Amido phosphorothiolates” (priority 1972, dated 1977)
